Source: ChEMBL document CHEMBL5579790, “Development of novel β2-adrenergic receptor agonists for the stimulation of glucose uptake - The importance of chirality and ring size of cyclic amines” (Bioorg Med Chem Lett, 2024)

Target: Beta-2 adrenergic receptor (Rattus norvegicus) (UniProt P10608)
Assay: Agonist activity at beta2-adrenergic receptor in rat L6 cells transfected with GLUT4 assessed as stimulation of skeletal muscle glucose uptake at 10 uM relative to isoprenaline
Format: functional, cell-based

Beta-2 adrenergic receptor (Rattus norvegicus), sequence (P10608 whole entry, looked up): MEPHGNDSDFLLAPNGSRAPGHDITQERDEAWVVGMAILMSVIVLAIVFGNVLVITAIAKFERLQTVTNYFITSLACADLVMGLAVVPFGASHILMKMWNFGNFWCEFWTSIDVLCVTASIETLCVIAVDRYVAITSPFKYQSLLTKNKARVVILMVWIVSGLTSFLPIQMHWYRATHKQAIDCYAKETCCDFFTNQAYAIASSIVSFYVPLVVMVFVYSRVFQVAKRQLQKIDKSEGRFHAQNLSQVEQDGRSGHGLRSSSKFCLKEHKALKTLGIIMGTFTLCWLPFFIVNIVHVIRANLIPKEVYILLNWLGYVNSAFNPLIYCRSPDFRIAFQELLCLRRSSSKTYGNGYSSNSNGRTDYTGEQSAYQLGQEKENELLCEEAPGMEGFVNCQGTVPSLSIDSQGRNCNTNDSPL

Row | Structure (SMILES) | Activity [%] | Activity (filed as agonist) [%]
1 | CCCCNC[C@@H](O)c1cccc(O)c1 | < 10 | –
2 | CCC[C@H]1CC[C@H]([C@@H](O)c2cccc(F)c2)N1 | 20 | –
3 | CCC[C@H]1CCCC[C@@H]([C@@H](O)c2cccc(F)c2)N1 | 39 | –
4 | CCC[C@H]1C[C@@H]([C@H](O)c2cccc(F)c2)N1 | 19 | –
5 | CCC[C@H]1CCC[C@H]([C@H](O)c2cccc(F)c2)N1 | – | 54
6 | CCCCNC[C@@H](O)c1cccc(F)c1 | < 10 | –
7 | CCC[C@H]1CCCC[C@@H]([C@H](O)c2cccc(F)c2)N1 | 19 | –
8 | CCC[C@H]1CCC[C@@H]([C@H](O)c2cccc(F)c2)N1 | – | 67
9 | CCC[C@H]1CCCC[C@H]([C@@H](O)c2cccc(F)c2)N1 | 15 | –
10 | CCC[C@@H](C)NC[C@H](O)c1cccc(F)c1 | – | 90
11 | CCC[C@@H]1CC[C@H]([C@H](O)c2cccc(F)c2)N1 | – | 110
12 | CCC[C@@H]1C[C@@H]([C@H](O)c2cccc(F)c2)N1 | 31 | –
13 | CCC[C@@H]1CC[C@H]([C@@H](O)c2cccc(F)c2)N1 | – | 41
14 | CCC[C@@H]1CCCC[C@@H]([C@H](O)c2cccc(F)c2)N1 | 12 | –
15 | CCC[C@@H](C)NC[C@@H](O)c1cccc(O)c1 | – | 53
16 | CCC[C@@H]1CCC[C@@H]([C@H](O)c2cccc(F)c2)N1 | – | 42
17 | CCC[C@@H](C)NC[C@H](O)c1cccc(O)c1 | – | 130
18 | CCC[C@H]1CC[C@H]([C@H](O)c2cccc(F)c2)N1 | – | 52
19 | CCC[C@H]1CCC[C@H]([C@@H](O)c2cccc(F)c2)N1 | – | 56
20 | CCCCNC[C@H](O)c1cccc(O)c1 | – | 63
21 | CCC[C@@H]1CCC[C@H]([C@@H](O)c2cccc(F)c2)N1 | – | 50

Row | Structure (SMILES) | Activity [%] | Activity (filed as agonist) [%]
22 | CCC[C@@H]1C[C@H]([C@H](O)c2cccc(F)c2)N1 | – | 103
23 | CCC[C@H]1C[C@H]([C@@H](O)c2cccc(F)c2)N1 | 37 | –
24 | CCC[C@H]1CCC[C@@H]([C@@H](O)c2cccc(F)c2)N1 | – | 48
25 | CCC[C@H](C)NC[C@H](O)c1cccc(O)c1 | – | 79
26 | CCC[C@H]1C[C@@H]([C@@H](O)c2cccc(F)c2)N1 | – | 45
27 | CCC[C@@H]1CCC[C@H]([C@H](O)c2cccc(F)c2)N1 | – | 52
28 | CCC[C@@H]1C[C@@H]([C@@H](O)c2cccc(F)c2)N1 | – | 47
29 | CCCCNC[C@H](O)c1cccc(F)c1 | – | 57
30 | CCC[C@H]1CCCC[C@H]([C@H](O)c2cccc(F)c2)N1 | – | 47
31 | CCC[C@@H]1CC[C@@H]([C@@H](O)c2cccc(F)c2)N1 | – | 57
32 | CCC[C@@H]1CCCC[C@H]([C@H](O)c2cccc(F)c2)N1 | 39 | –
33 | CCC[C@@H]1C[C@H]([C@@H](O)c2cccc(F)c2)N1 | – | 53
34 | CCC[C@@H]1CC[C@@H]([C@H](O)c2cccc(F)c2)N1 | – | 43
35 | CCC[C@@H]1CCCC[C@@H]([C@@H](O)c2cccc(F)c2)N1 | < 10 | –
36 | CCC[C@@H]1CCCC[C@H]([C@@H](O)c2cccc(F)c2)N1 | – | 52
37 | CCC[C@H](C)NC[C@@H](O)c1cccc(O)c1 | 32 | –
38 | CCC[C@H]1C[C@H]([C@H](O)c2cccc(F)c2)N1 | – | 72
39 | CCC[C@H]1CC[C@@H]([C@H](O)c2cccc(F)c2)N1 | 27 | –
40 | CCC[C@H]1CC[C@@H]([C@@H](O)c2cccc(F)c2)N1 | – | 64
41 | CCC[C@H](C)NC[C@H](O)c1cccc(F)c1 | – | 75
42 | CCC[C@@H]1CCC[C@@H]([C@@H](O)c2cccc(F)c2)N1 | < 10 | –
